This is an account of results in PubChem BioAssay AID248 (DTP/NCI, 2004).

The test system of the assay is L1210 leukemia ip in BDF1 mice, survival T/C. The assay is described as follows: NCI In Vivo Anticancer Drug Screen. Data for tumor model L1210 Leukemia (intraperitoneal) in B6D2F1 (BDF1) mice. The conditions noted are these: endpoint: mean survival time, higher = longer survival. An outline of the steps:
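Ratio derived from survival: compound-dosed mice over vehicle-dosed mice, all bearing a transplantable tumor.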

Setting [1] is: dose: 100.0 mg/kg/injection, schedule: Q01DX001 (ip), vehicle: other.
Setting [2] is: dose: 100.0 mg/kg/injection, schedule: Q01DX009 (ip), vehicle: gum acacia.
Setting [3] is: dose: 200.0 mg/kg/injection, schedule: Q01DX009 (ip), vehicle: gum acacia.
The mark [4] stands for this setting: dose: 100.0 mg/kg/injection, schedule: Q01DX001 (ip), vehicle: carboxymethylcellulose (CMC).
Where [5] appears, read: dose: 200.0 mg/kg/injection, schedule: Q01DX001 (ip), vehicle: carboxymethylcellulose (CMC).
The mark [6] stands for this setting: dose: 400.0 mg/kg/injection, schedule: Q01DX001 (ip), vehicle: carboxymethylcellulose (CMC).
[7] abbreviates: dose: 100.0 mg/kg/injection, schedule: Q01DX009 (ip), vehicle: Klucel (hydroxypropylcellulose) (HPC).
Setting [8] is: dose: 100.0 mg/kg/injection, schedule: Q04DX002 (ip), vehicle: Klucel (hydroxypropylcellulose) (HPC).
The mark [9] stands for this setting: dose: 200.0 mg/kg/injection, schedule: Q01DX009 (ip), vehicle: Klucel (hydroxypropylcellulose) (HPC).
The mark [10] stands for this setting: dose: 200.0 mg/kg/injection, schedule: Q04DX002 (ip), vehicle: Klucel (hydroxypropylcellulose) (HPC).
[11] abbreviates: dose: 400.0 mg/kg/injection, schedule: Q01DX009 (ip), vehicle: Klucel (hydroxypropylcellulose) (HPC).
Setting [12] is: dose: 400.0 mg/kg/injection, schedule: Q04DX002 (ip), vehicle: Klucel (hydroxypropylcellulose) (HPC).
The mark [13] stands for this setting: dose: 200.0 mg/kg/injection, schedule: Q01DX009 (ip), vehicle: saline.

Where “and” joins values, the source holds several entries; their conditions need not be identical. Equal values may be shown once. Inconclusive results and toxic doses are left out.

In the case of `Cc1cc(C)c(-c2c(C)cc(C)cc2[N+](=O)[O-])c([N+](=O)[O-])c1`, the T/C is 93 % of control (dose: 100.0 mg/kg/injection, schedule: Q04DX003 (ip), vehicle: saline); 96 % of control (dose: 200.0 mg/kg/injection, schedule: Q04DX003 (ip), vehicle: saline); 86 % of control (dose: 400.0 mg/kg/injection, schedule: Q04DX003 (ip), vehicle: saline).

For `CCCCCCCCCCCCC(C(=O)O)C1C=CCC1` (stereo not drawn), the T/C under setting [1] is 95 % of control; the T/C (dose: 200.0 mg/kg/injection, schedule: Q01DX001 (ip), vehicle: other) is 90 % of control; the T/C (dose: 400.0 mg/kg/injection, schedule: Q01DX001 (ip), vehicle: other) was 101 % of control.

For the molecule `Cc1ccc(-n2c(O)c(N=Nc3ccc(Cl)cc3)c(=O)n(-c3ccccc3)c2=S)cc1`, the T/C by setting is: (dose: 37.5 mg/kg/injection, schedule: Q01DX001 (ip), vehicle: Klucel (hydroxypropylcellulose) (HPC)) 96 % of control; (dose: 75.0 mg/kg/injection, schedule: Q01DX001 (ip), vehicle: Klucel (hydroxypropylcellulose) (HPC)) 92 % of control; (dose: 150.0 mg/kg/injection, schedule: Q01DX001 (ip), vehicle: Klucel (hydroxypropylcellulose) (HPC)) 102 % of control.

As for `NCCCN=C=NCc1ccccc1`, under “dose: 100.0 mg/kg/injection, schedule: Q01DX001 (ip), vehicle: saline”, the T/C is 100 % of control.

As to `CC(=O)C1CCc2c(O)c3c(c(O)c2C1)C(=O)c1ccccc1C3=O` (stereo not drawn), the T/C runs as follows: (dose: 87.5 mg/kg/injection, schedule: Q04DX003 (ip), vehicle: saline with Tween-80) 94 % of control; (dose: 175.0 mg/kg/injection, schedule: Q04DX003 (ip), vehicle: saline with Tween-80) 91 % of control; (dose: 350.0 mg/kg/injection, schedule: Q04DX003 (ip), vehicle: saline with Tween-80) 94 % of control.

As to `COc1ccc(C(=S)N(C)NC(=O)CC(=O)NN(C)C(=S)c2ccc(OC)cc2)cc1`, the T/C runs as follows: under setting [2], 95 % of control; (dose: 100.0 mg/kg/injection, schedule: Q04DX003 (ip), vehicle: gum acacia) 92 % of control; under setting [3], 90 % of control; (dose: 200.0 mg/kg/injection, schedule: Q04DX003 (ip), vehicle: gum acacia) 95 % of control; (dose: 400.0 mg/kg/injection, schedule: Q04DX003 (ip), vehicle: gum acacia) 96 % of control.

For `CCCCCC[n+]1cccc(C#N)c1`, the T/C by setting is: (dose: 18.75 mg/kg/injection, schedule: Q01DX009 (ip), vehicle: saline) 95 % of control; (dose: 37.5 mg/kg/injection, schedule: Q01DX009 (ip), vehicle: saline) 95 % of control; (dose: 75.0 mg/kg/injection, schedule: Q01DX001 (ip), vehicle: saline) 113 % of control; (dose: 75.0 mg/kg/injection, schedule: Q01DX009 (ip), vehicle: saline) 94 % of control; (dose: 75.0 mg/kg/injection, schedule: Q04DX003 (ip), vehicle: saline) 97 % of control; (dose: 150.0 mg/kg/injection, schedule: Q01DX001 (ip), vehicle: saline) 95 % of control. Further, the T/C is 101 % of control (dose: 150.0 mg/kg/injection, schedule: Q04DX003 (ip), vehicle: saline) and 100 % of control (dose: 300.0 mg/kg/injection, schedule: Q01DX001 (ip), vehicle: saline).

On to `CC(C)N(C(=O)Nc1cccc(F)c1)C1CCCCC1`, for which the T/C is 105 % of control (dose: 50.0 mg/kg/injection, schedule: Q01DX009 (ip), vehicle: gum acacia); 100 % of control and 88 % of control under setting [2]; 94 % of control under setting [3]; 90 % of control (dose: 400.0 mg/kg/injection, schedule: Q01DX009 (ip), vehicle: gum acacia).

Turning to `CC(NCCOc1ccccc1)c1ccccc1` (stereo not drawn), the T/C was 108 % of control (dose: 100.0 mg/kg/injection, schedule: Q04DX002 (ip), vehicle: saline with Tween-80) and 105 % of control (dose: 200.0 mg/kg/injection, schedule: Q04DX002 (ip), vehicle: saline with Tween-80).

`Cc1ccc(S(=O)(=O)NCC(=O)NCC(=O)Oc2c(Cl)c(Cl)c(Cl)c(Cl)c2Cl)cc1`: the T/C is 95 % of control (dose: 100.0 mg/kg/injection, schedule: Q01DX001 (ip), vehicle: water); 96 % of control (dose: 200.0 mg/kg/injection, schedule: Q01DX001 (ip), vehicle: water); 95 % of control (dose: 400.0 mg/kg/injection, schedule: Q01DX001 (ip), vehicle: water).

On to `COC(=O)C1OC(n2cnc3c(N)ncnc32)C(OC(C)=O)C(OC(C)=O)C1OC(C)=O` (stereo not drawn), for which the T/C was 100 % of control (dose: 50.0 mg/kg/injection, schedule: Q01DX001 (ip), vehicle: carboxymethylcellulose (CMC)); 92 % of control under setting [4]; 100 % of control under setting [5]; 92 % of control under setting [6].

`CCCCCCCCCCCC(=O)Nc1ccc(N(C)C(C)=O)cc1`: the T/C is 90 % of control under setting [7]; 89 % of control under setting [8]; 95 % of control under setting [9]; 100 % of control under setting [10]; 97 % of control under setting [11]; 100 % of control under setting [12].

As for `COc1cc2c(cc1O)/C(=N/O)CCCC2`, the T/C was 102 % of control (dose: 50.0 mg/kg/injection, schedule: Q01DX009 (ip), vehicle: saline with Tween-80); 102 % of control (dose: 100.0 mg/kg/injection, schedule: Q01DX009 (ip), vehicle: saline with Tween-80); 106 % of control (dose: 200.0 mg/kg/injection, schedule: Q01DX009 (ip), vehicle: saline with Tween-80); 104 % of control (dose: 400.0 mg/kg/injection, schedule: Q01DX009 (ip), vehicle: saline with Tween-80).

Consider `CS(=O)(=O)OCC(O)C(O)C(O)C(O)COS(C)(=O)=O` (stereo not drawn), for which the T/C under setting [4] was 98 % of control, the T/C under setting [5] was 92 % of control and the T/C under setting [6] was 103 % of control.

Regarding `Cc1ccc(NC(=O)Oc2cccc(C(F)(F)F)c2)cc1`, the T/C runs as follows: under setting [7], 100 % of control; under setting [9], 98 % of control; under setting [11], 100 % of control.

`C/C=C\C1CC2CC(C1C)C2(C)C` (stereo not drawn): the T/C was 102 % of control (dose: 50.0 mg/kg/injection, schedule: Q01DX009 (ip), vehicle: saline); 97 % of control (dose: 100.0 mg/kg/injection, schedule: Q01DX009 (ip), vehicle: saline); 105 % of control under setting [13].

On to `O=S(=O)(O)c1cc(O)c2c(N=Nc3c(S(=O)(=O)O)cc4cc(S(=O)(=O)O)cc(N=Nc5c(S(=O)(=O)O)cc6cc(S(=O)(=O)O)cc(O)c6c5O)c4c3O)cc(S(=O)(=O)O)cc2c1`, for which the T/C by setting is: (dose: 100.0 mg/kg/injection, schedule: Q04DX003 (ip), vehicle: saline with Tween-80) 94 % of control; (dose: 200.0 mg/kg/injection, schedule: Q04DX003 (ip), vehicle: saline with Tween-80) 96 % of control; (dose: 400.0 mg/kg/injection, schedule: Q04DX003 (ip), vehicle: saline with Tween-80) 96 % of control.

With `O=C(NCCCl)C(=O)NCCCl`, the T/C was 104 % of control under setting [8], 107 % of control under setting [10] and 93 % of control under setting [12].

As for `CC1(C)CN1P(=S)(N1CC1(C)C)N1CC1(C)C` (stereo not drawn), the T/C reads like this: (dose: 12.5 mg/kg/injection, schedule: Q01DX009 (ip), vehicle: saline) 98 % of control; (dose: 14.0 mg/kg/injection, schedule: Q01DX009 (ip), vehicle: saline) 109 % of control; (dose: 22.0 mg/kg/injection, schedule: Q01DX009 (ip), vehicle: saline) 112 % of control; (dose: 25.0 mg/kg/injection, schedule: Q01DX009 (ip), vehicle: saline) 94 % of control; (dose: 33.0 mg/kg/injection, schedule: Q01DX009 (ip), vehicle: saline) 152 % of control; (dose: 44.0 mg/kg/injection, schedule: Q01DX001 (ip), vehicle: other) 121 % of control. Besides, the T/C is, setting by setting: under setting [4], 166 % of control and 169 % of control; under setting [1], 153 % of control; (dose: 150.0 mg/kg/injection, schedule: Q01DX001 (ip), vehicle: other) 158 % of control; under setting [5], 164 % of control; under setting [13], 120 % of control.

For the molecule `COc1cc([N+](=O)[O-])ccc1NC(=O)Nc1ccc(Cl)cc1[N+](=O)[O-]`, the T/C is, setting by setting: under setting [7], 100 % of control; under setting [9], 95 % of control; under setting [11], 90 % of control.
